*1 amine or outer side, *2 acyl side, *3 side chain or, on linkers, in order; H or OH if unused. Where a SMILES comes first, the peptide text is derived from it. Bridges are numbered along the chain shown (N, C = ends). [ ]: non-standard residue; d: D form. The star is where a group is joined. DOTA = O=C(O)CN1CCN(CC(=O)O)CCN(CC(=O)*)CCN(CC(=O)O)CC1; X8 = O=C(CN(CC(=O)NC(CO)(CO)CO)CC(=O)*)NC(CO)(CO)CO; Pro(trans-4-F) = O=C(O)[C@@H]1C[C@@H](F)CN1; Phe(3-Cl) = N[C@@H](Cc1cccc(Cl)c1)C(=O)O; Pro(cis-4-F) = O=C(O)[C@@H]1C[C@H](F)CN1; Phe(2-Cl) = N[C@@H](Cc1ccccc1Cl)C(=O)O; cisHyp = O=C(O)[C@@H]1C[C@H](O)CN1; Hyp = O=C(O)[C@@H]1C[C@@H](O)CN1; 4Pal = N[C@@H](Cc1ccncc1)C(=O)O; Pentanoyl(4-Me) = CC(C)CCC(=O)*; Cit = NC(=O)NCCC[C@H](N)C(=O)O; Butoxycarbonyl = CCCCOC(=O)*; Chg = N[C@H](C(=O)O)C1CCCCC1; Pen = CC(C)(S)[C@H](N)C(=O)O; Nle = CCCC[C@H](N)C(=O)O; Orn = NCCC[C@H](N)C(=O)O; Api = NC1(C(=O)O)CCNCC1; Dab = NCC[C@H](N)C(=O)O; Nva = CCC[C@H](N)C(=O)O; Pentanoyl = CCCCC(=O)*; CH2 = C([*:1])[*:2]
Assays:
[1] = target: T1, uPAR-expressing HEC-265 human endometrial adenocarcinoma cells (Homo sapiens, UniProt Q03405); experiment: Competitive FACS binding assay; settings: pIC50 category of FACS binding
T1 construct: Cell surface uPAR-expressing HEC-265 human endometrial adenocarcinoma cells; host or cells: HEC-265
Summary of the method: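 Competitive displacement of a 10 nM biotinylated peptide from HEC-265 cells (1 h, 4 °C, PBS/1% BSA), detected via APC-streptavidin by flow cytometry. pIC50 from four-parameter logistic fit of median fluorescence versus concentration.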

human uPAR (uPAR-Fc) = target: T2, human uPAR (uPAR-Fc) (Homo sapiens, UniProt Q03405); experiment: Surface plasmon resonance (SPR) assay, single cycle kinetics; assay type: binding; settings: pKD category for uPAR SPR activity assay; uPAR-Fc on Protein A-Chip, 25°C; read-out: pKD CAT (converted)
T2 construct: comprising amino acids Leu23-Arg303 according to UniProt entry Q03405.1; purchased R&D Systems 10378-UK-100
Summary of the method: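 uPAR-Fc (Leu23-Arg303 extracellular domains, human IgG1 Fc) captured on Protein A chip to ~2000 RU; single-cycle kinetics at 25°C in HEPES running buffer pH 7.4 with 0.1% DMSO. KD from double-referenced sensorgrams fitted to 1:1 Langmuir model, reported as pKD.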

T1 sequence (Q03405 23-335): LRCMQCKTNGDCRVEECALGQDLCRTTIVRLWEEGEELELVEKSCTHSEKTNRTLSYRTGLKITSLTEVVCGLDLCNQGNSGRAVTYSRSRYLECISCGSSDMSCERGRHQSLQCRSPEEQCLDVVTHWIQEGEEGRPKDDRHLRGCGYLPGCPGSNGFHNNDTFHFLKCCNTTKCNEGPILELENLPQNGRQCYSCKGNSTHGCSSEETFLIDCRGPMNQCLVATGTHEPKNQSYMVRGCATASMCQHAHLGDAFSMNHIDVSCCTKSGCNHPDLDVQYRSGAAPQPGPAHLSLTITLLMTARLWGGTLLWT
T2 sequence (Q03405 23-303): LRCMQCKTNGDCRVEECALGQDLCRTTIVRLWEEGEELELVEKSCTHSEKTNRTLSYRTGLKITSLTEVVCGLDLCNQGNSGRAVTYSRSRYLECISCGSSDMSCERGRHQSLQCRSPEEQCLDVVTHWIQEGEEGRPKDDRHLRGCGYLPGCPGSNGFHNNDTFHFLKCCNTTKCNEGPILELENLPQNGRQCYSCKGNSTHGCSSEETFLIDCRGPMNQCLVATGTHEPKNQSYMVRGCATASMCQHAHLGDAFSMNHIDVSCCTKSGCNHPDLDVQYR

SMILES	IC50 [1] [nM]	Kd (human uPAR (uPAR-Fc)) [nM]
CCCCC(=O)N[C@H]1CSSC[C@@H](C(N)=O)NC(=O)[C@H](CCC)NC(=O)[C@H]([C@@H](C)CC)NC(=O)[C@@H]2C[C@H](O)CN2C(=O)[C@@H]2CCCN2C(=O)[C@H](Cc2ccccc2)NC(=O)[C@H](Cc2ccc(O)cc2)NC(=O)[C@H](CCCCNC(=O)CN2CCN(CC(=O)O)CCN(CC(=O)O)CCN(CC(=O)O)CC2)NC(=O)[C@H](CCCNC(N)=O)NC1=O [UPAR-214, Pent-[Cys-Cit-Lys(DOTA)-Tyr-Phe-Pro-Chy-Ile-Nva-Cys]-NH2] (Pentanoyl-C[Cit]K(DOTA)YFP[cisHyp]I[Nva]C-NH2; disulfide 1-10)	≤ 10	< 1.58
CCCCC(=O)N[C@H]1CSCSC[C@@H](C(N)=O)NC(=O)[C@H](CCC)NC(=O)[C@H]([C@@H](C)CC)NC(=O)[C@@H]2C[C@@H](O)CN2C(=O)[C@@H]2CCCN2C(=O)[C@H](Cc2ccccc2)NC(=O)[C@H](Cc2ccc(O)cc2)NC(=O)[C@H](CCC(N)=O)NC(=O)[C@H](CCCNC(N)=O)NC1=O [UPAR-215, Pent-[Smc-Cit-Gln-Tyr-Phe-Pro-Hyp-Ile-Nva-Cys]-NH2] (Pentanoyl-C[Cit]QYFP[Hyp]I[Nva]C-NH2; linker 1-10 via CH2)	12.6 to 31.6	1.58 to 10
CCCCC(=O)N[C@H]1CSSC(C)(C)[C@@H](C(N)=O)NC(=O)[C@H](CCC)NC(=O)[C@H]([C@@H](C)CC)NC(=O)[C@@H]2C[C@@H](O)CN2C(=O)[C@@H]2CCCN2C(=O)[C@H](Cc2ccccc2)NC(=O)[C@H](Cc2ccc(O)cc2)NC(=O)[C@H](CCC(N)=O)NC(=O)[C@H](CCCNC(N)=O)NC1=O [UPAR-217, Pent-[Cys-Cit-Gln-Tyr-Phe-Pro-Hyp-Ile-Nva-Pen]-NH2] (Pentanoyl-C[Cit]QYFP[Hyp]I[Nva][Pen]-NH2; disulfide 1-10)	≤ 10	1.58 to 10
CCCC[C@@H]1NC(=O)[C@H](CCCNC(=N)N)NC(=O)[C@@H](NC(=O)[C@H](CC(C)C)NC(=O)[C@H](CC(=O)O)NC(C)=O)CSSC[C@@H](C(N)=O)NC(=O)[C@H](CC(C)C)NC(=O)[C@H]([C@@H](C)CC)NC(=O)[C@H](C)NC(=O)[C@H]2CCCN2C(=O)[C@H](Cc2ccccc2)NC(=O)[C@H](Cc2ccc(O)cc2)NC1=O [UPAR-218, Ac-Asp-Leu-[Cys-Arg-Nle-Tyr-Phe-pro-Ala-Ile-Leu-Cys]-NH2] (Ac-DLCR[Nle]YF[dP]AILC-NH2; disulfide 3-12)	≥ 126	> 100
CC[C@H](C)[C@@H]1NC(=O)C2(CCN(C(=O)CN3CCN(CC(=O)O)CCN(CC(=O)O)CCN(CC(=O)O)CC3)CC2)NC(=O)[C@@H]2CCCN2C(=O)[C@H](Cc2ccccc2)NC(=O)[C@H](Cc2ccc(O)cc2)NC(=O)[C@H](CCC(N)=O)NC(=O)[C@H](CCCNC(N)=O)NC(=O)[C@@H](NC(=O)CCC(C)C)CSSC[C@@H](C(N)=O)NC(=O)[C@H](CC(C)C)NC1=O [UPAR-219, iHex-[Cys-Cit-Gln-Tyr-Phe-Pro-Apc(DOTA)-Ile-Leu-Cys]-NH2] ({Pentanoyl(4-Me)}-C[Cit]QYFP[Api](DOTA)ILC-NH2; disulfide 1-10)	≤ 10	1.58 to 10
CC[C@H](C)[C@@H]1NC(=O)[C@@H]2C[C@@H](F)CN2C(=O)[C@@H]2CCCN2C(=O)[C@H](Cc2ccccc2)NC(=O)[C@H](Cc2ccc(O)cc2)NC(=O)[C@H](CCC(N)=O)NC(=O)[C@H](CCCNC(N)=O)NC(=O)[C@@H](NC(=O)CCC(C)C)CSSC[C@@H](C(N)=O)NC(=O)[C@H](CC(C)C)NC1=O [UPAR-220, iHex-[Cys-Cit-Gln-Tyr-Phe-Pro-4Tfp-Ile-Leu-Cys]-NH2] ({Pentanoyl(4-Me)}-C[Cit]QYFP[Pro(trans-4-F)]ILC-NH2; disulfide 1-10)	≤ 10	< 1.58
CC[C@H](C)[C@@H]1NC(=O)[C@@H](C)NC(=O)[C@@H]2CCCN2C(=O)[C@H](Cc2ccccc2Cl)NC(=O)[C@H](Cc2ccc(O)cc2)NC(=O)[C@H](CCC(N)=O)NC(=O)[C@H](CCCNC(N)=O)NC(=O)[C@@H](NC(=O)CCC(C)C)CSSC[C@@H](C(N)=O)NC(=O)[C@H](CC(C)C)NC1=O [UPAR-221, iHex-[Cys-Cit-Gln-Tyr-Ocf-Pro-ala-Ile-Leu-Cys]-NH2] ({Pentanoyl(4-Me)}-C[Cit]QY[Phe(2-Cl)]P[dA]ILC-NH2; disulfide 1-10)	≤ 10	< 1.58
CCCCC(=O)N[C@H]1CSSC[C@@H](C(N)=O)NC(=O)[C@H](CCC)NC(=O)[C@H]([C@@H](C)CC)NC(=O)[C@@H]2C[C@@H](O)CN2C(=O)[C@@H]2CCCN2C(=O)[C@H](Cc2ccncc2)NC(=O)[C@H](Cc2ccc(O)cc2)NC(=O)[C@H](CCCCNC(=O)CN2CCN(CC(=O)O)CCN(CC(=O)O)CCN(CC(=O)O)CC2)NC(=O)[C@H](CCCNC(N)=O)NC1=O [UPAR-222, Pent-[Cys-Cit-Lys(DOTA)-Tyr-Ppa-Pro-Hyp-Ile-Nva-Cys]-NH2] (Pentanoyl-C[Cit]K(DOTA)Y[4Pal]P[Hyp]I[Nva]C-NH2; disulfide 1-10)	≤ 10	1.58 to 10
CCC[C@@H]1NC(=O)[C@H]([C@@H](C)CC)NC(=O)[C@@H]2C[C@@H](O)CN2C(=O)[C@@H]2CCCN2C(=O)[C@H](Cc2ccccc2)NC(=O)[C@H](Cc2ccc(O)cc2)NC(=O)[C@H](CCC(N)=O)NC(=O)[C@H](CCCNC(=N)N)NC(=O)[C@@H](NC(=O)[C@H](Cc2ccccc2)NC(=O)CN2CCN(CC(=O)O)CCN(CC(=O)O)CCN(CC(=O)O)CC2)CSSC[C@@H](C(N)=O)NC1=O [UPAR-223, DOTA-Phe-[Cys-Arg-Gln-Tyr-Phe-Pro-Hyp-Ile-Nva-Cys]-NH2] ({DOTA}-FCRQYFP[Hyp]I[Nva]C-NH2; disulfide 2-11)	39.8 to 100	10 to 100
CCCCC(=O)N[C@H]1CSSC[C@@H](C(N)=O)NC(=O)[C@H](CCC)NC(=O)[C@H]([C@@H](C)CC)NC(=O)[C@@H]2C[C@@H](O)CN2C(=O)[C@@H]2CCCN2C(=O)[C@H](Cc2ccccc2)NC(=O)[C@H](Cc2ccc(O)cc2)NC(=O)[C@H](CCCCNC(=O)CN2CCN(CC(=O)O)CCN(CC(=O)O)CCN(CC(=O)O)CC2)NC(=O)[C@H](CCCNC(=O)CN(CC(=O)NC(CO)(CO)CO)CC(=O)NC(CO)(CO)CO)NC1=O [UPAR-224, Pent-[Cys-Orn(Tris-Nta(Tris))-Lys(DOTA)-Tyr-Phe-Pro-Hyp-Ile-Nva-Cys]-NH2] (Pentanoyl-C[Orn](X8)K(DOTA)YFP[Hyp]I[Nva]C-NH2; disulfide 1-10)	≤ 10	< 1.58
CC(C)CCC(=O)N[C@H]1CSSC[C@@H](C(N)=O)NC(=O)[C@H](CC(C)C)NC(=O)[C@H](C2CCCCC2)NC(=O)[C@@H](C)NC(=O)[C@@H]2CCCN2C(=O)[C@H](Cc2ccccc2)NC(=O)[C@H](Cc2ccc(O)cc2)NC(=O)[C@H](CCC(N)=O)NC(=O)[C@H](CCCNC(N)=O)NC1=O [UPAR-225, iHex-[Cys-Cit-Gln-Tyr-Phe-Pro-ala-Chg-Leu-Cys]-NH2] ({Pentanoyl(4-Me)}-C[Cit]QYFP[dA][Chg]LC-NH2; disulfide 1-10)	≤ 10	< 1.58
CCCCC(=O)N[C@H]1CSSC[C@@H](C(N)=O)NC(=O)[C@H](CCC)NC(=O)[C@H]([C@@H](C)CC)NC(=O)[C@H](Cc2ccc(O)cc2)NC(=O)[C@@H]2CCCN2C(=O)[C@H](Cc2ccccc2)NC(=O)[C@H](Cc2ccc(O)cc2)NC(=O)[C@H](CCC(N)=O)NC(=O)[C@H](CCCNC(=N)N)NC1=O [UPAR-226, Pent-[Cys-Arg-Gln-Tyr-Phe-Pro-Tyr-Ile-Nva-Cys]-NH2] (Pentanoyl-CRQYFPYI[Nva]C-NH2; disulfide 1-10)	≤ 10	< 1.58
CC[C@H](C)[C@@H]1NC(=O)[C@@H](C)NC(=O)[C@@H]2CCCN2C(=O)[C@H](Cc2cccc(Cl)c2)NC(=O)[C@H](Cc2ccc(O)cc2)NC(=O)[C@H](CCC(N)=O)NC(=O)[C@H](CCCNC(N)=O)NC(=O)[C@@H](NC(=O)CCC(C)C)CSSC[C@@H](C(N)=O)NC(=O)[C@H](CC(C)C)NC1=O [UPAR-227, iHex-[Cys-Cit-Gln-Tyr-Mcf-Pro-ala-Ile-Leu-Cys]-NH2] ({Pentanoyl(4-Me)}-C[Cit]QY[Phe(3-Cl)]P[dA]ILC-NH2; disulfide 1-10)	≤ 10	< 1.58
CCCCOC(=O)N[C@H]1CSSC[C@@H](C(N)=O)NC(=O)[C@H](CCC)NC(=O)[C@H]([C@@H](C)CC)NC(=O)[C@@H]2C[C@@H](O)CN2C(=O)[C@@H]2C[C@H](F)CN2C(=O)[C@H](Cc2ccccc2)NC(=O)[C@H](Cc2ccc(O)cc2)NC(=O)[C@H](CCNC(=O)CN2CCN(CC(=O)O)CCN(CC(=O)O)CCN(CC(=O)O)CC2)NC(=O)[C@H]([C@@H](C)O)NC1=O [UPAR-228, Butoc-[Cys-Thr-Dab(DOTA)-Tyr-Phe-4Cfp-Hyp-Ile-Nva-Cys]-NH2] (Butoxycarbonyl-CT[Dab](DOTA)YF[Pro(cis-4-F)][Hyp]I[Nva]C-NH2; disulfide 1-10)	≤ 10	< 1.58
CCCC[C@@H]1NC(=O)[C@H](CCCNC(=N)N)NC(=O)[C@@H](NC(=O)[C@H](CC(C)C)NC(=O)[C@H](CC(=O)O)NC(C)=O)CSSC[C@@H](C(N)=O)NC(=O)[C@H](CC(C)C)NC(=O)[C@H]([C@@H](C)CC)NC(=O)[C@H](C)NC(=O)[C@@H]2CCCN2C(=O)[C@@H](Cc2ccccc2)NC(=O)[C@H](Cc2ccc(O)cc2)NC1=O [UPAR-230, Ac-Asp-Leu-[Cys-Arg-Nle-Tyr-phe-Pro-Ala-Ile-Leu-Cys]-NH2] (Ac-DLCR[Nle]Y[dF]PAILC-NH2; disulfide 3-12)	≥ 126	> 100

Source: patent publication EP4610269A1, “UROKINASE PLASMINOGEN ACTIVATOR SURFACE RECEPTOR (UPAR) LIGANDS FOR DIAGNOSTIC OR THERAPEUTIC USE” (3B Pharmaceuticals GmbH, priority 2024, dated 2025)
